System: Subjects with Osteoarthritis of the Knee
Experiment: Second Phase 2 study: safety (treatment-emergent adverse events)
Type: in vivo, human
Conditions: for Adverse events of special interest, Events / Adverse events of special interest, Subjects, number (%) / Local skin reactions around the treated knees, Events / Local skin reactions around the treated knees, Subjects, number (%) / Requires hospitalization, Events / Requires hospitalization, Subjects, number (%) / Results in death, number (%) / Serious treatment-emergent adverse events, Events / Serious treatment-emergent adverse events, Subjects, number (%) / Severe treatment-emergent adverse events, Events / Severe treatment-emergent adverse events, Subjects, number (%) / To be discontinued from the study due to adverse events, Events / To be discontinued from the study due to adverse events, Subjects, number (%) / To be discontinued from the treatment temporarily due to adverse events, Events / To be discontinued from the treatment temporarily due to adverse events, Subjects, number (%) / Treatment-emergent adverse events, Events / Treatment-emergent adverse events, Subjects, number (%): All Causalities
Source text: Safety assessments will be performed at each visit and will include assessment of AEs, vital signs (blood pressure, pulse rate, and oral temperature), clinical laboratories, physical examination, skin irritation, and electrocardiograms (ECGs) as indicated in the study flow chart, Table 47.
Safety assessments will include AEs, vital signs (blood pressures, pulse rate, and oral temperature), clinical laboratories, physical examination, skin irritation, and ECGs at various time points during the study as indicated in the study flow chart.
Adverse events of interest include: local skin reactions around the treated knee(s), upper stomach pain, GI bleeding, serious cardiovascular side effects (e.g., thrombotic events, myocardial infarction, or stroke), jaundice, elevated liver function tests, and nausea.
Safety analyses will be conducted on the SAS. Safety parameters will be listed and summarized using standard descriptive statistics, as appropriate. No formal statistical analyses are planned.

[1] = moderate adverse events, 4.375 mg/knee, BID, N = 71

## CCN(CC)CCOC(=O)C(C)c1ccc(CC(C)C)cc1 (stereo not drawn) [2-(diethylamino)ethyl 2-(4-isobutylphenyl)propionate]
17.5 mg/knee, BID, N = 70
  Aspartate Aminotransferase Increased: number of adverse events: 1
  Aspartate Aminotransferase Increased: percentage of subjects with adverse events: 1.4%
  Aspartate Aminotransferase Increased: subjects with adverse events: 1
  Back Pain: number of adverse events: 1(%)[1]
  Back Pain: subjects with adverse events, number (percentage): 1(%)[1]
  Constipation: number of adverse events: 1
  Constipation: percentage of subjects with adverse events: 1.4%
  Constipation: subjects with adverse events: 1
  Cough: number of adverse events: 2
  Cough: subjects with adverse events, number (percentage): 2(2.9%)
  Dizziness: number of adverse events: 1
  Dizziness: subjects with adverse events, number (percentage): 1(1.4%)
  Frequency of Positive Fecal Occult Blood Test: 5
  Gastrointestinal Disorders: number of adverse events: 5
  Gastrointestinal Disorders: percentage of subjects with adverse events: 5.7%
  Gastrointestinal Disorders: subjects with adverse events: 4
  Gout: number of adverse events: 1
  Gout: percentage of subjects with adverse events: 1.4%
  Gout: subjects with adverse events: 1
  Headache: number of adverse events: 1
  Headache: subjects with adverse events, number (percentage): 1(1.4%)
  Hypercholesterolaemia: number of adverse events: 2
  Hypercholesterolaemia: percentage of subjects with adverse events: 2.9%
  Hypercholesterolaemia: subjects with adverse events: 2
  Hypertriglyceridemia: number of adverse events: 6
  Hypertriglyceridemia: percentage of subjects with adverse events: 8.6%
  Hypertriglyceridemia: subjects with adverse events: 6
  Infections and Infestations: number of adverse events: 14
  Infections and Infestations: subjects with adverse events, number (percentage): 13(18.6%)
  Investigations: number of adverse events: 1
  Investigations: percentage of subjects with adverse events: 1.4%
  Investigations: subjects with adverse events: 1
  Metabolism and Nutrition Disorders: number of adverse events: 9
  Metabolism and Nutrition Disorders: percentage of subjects with adverse events: 11.4%
  Metabolism and Nutrition Disorders: subjects with adverse events: 9
  Muscle Spasms: number of adverse events: 3
  Muscle Spasms: subjects with adverse events, number (percentage): 2
  Musculoskeletal Pain: number of adverse events: 2
  Musculoskeletal Pain: subjects with adverse events, number (percentage): 1
  Musculoskeletal and Connective Tissue Disorders, Overall Total: number of adverse events: 8
  Musculoskeletal and Connective Tissue Disorders, Overall Total: subjects with adverse events, number (percentage): 6(8.6%)
  Neck Pain: number of adverse events: 1(%)[1]
  Neck Pain: subjects with adverse events, number (percentage): 1(%)[1]
  Nervous System Disorders: number of adverse events: 2
  Nervous System Disorders: subjects with adverse events, number (percentage): 2(2.9%)
  Pain in Extremity: number of adverse events: 1(%)[1]
  Pain in Extremity: subjects with adverse events, number (percentage): 1(%)[1]
  Rash: number of adverse events: 2
  Rash: percentage of subjects with adverse events: 4.2%
  Rash: subjects with adverse events: 2
  Respiratory, Thoracic and Mediastinal Disorders: number of adverse events: 2
  Respiratory, Thoracic and Mediastinal Disorders: subjects with adverse events, number (percentage): 2(2.9%)
  Skin Irritation: number of adverse events: 4
  Skin Irritation: percentage of subjects with adverse events: 1.4%
  Skin Irritation: subjects with adverse events: 3
  Skin and Subcutaneous Tissue Disorders: number of adverse events: 6
  Skin and Subcutaneous Tissue Disorders: percentage of subjects with adverse events: 7.1%
  Skin and Subcutaneous Tissue Disorders: subjects with adverse events: 5
  Subjects with Positive Fecal Occult Blood Test: 5
  Subjects with Positive Fecal Occult Blood Test, percentage: 7.1%
  Toothache: number of adverse events: 1
  Toothache: percentage of subjects with adverse events: 1.4%
  Toothache: subjects with adverse events: 1
  Upper Respiratory Tract Infection: number of adverse events: 5
  Upper Respiratory Tract Infection: subjects with adverse events, number (percentage): 5(7.1%)
  Urinary Tract Infection: number of adverse events: 9
  Urinary Tract Infection: subjects with adverse events, number (percentage): 8(11.4%)
4.375 mg/knee BID, n = 71
  Adverse events of special interest, Events: 16
  Adverse events of special interest, Subjects, number (%): 11 (15.5%)
  Local skin reactions around the treated knees, Events: 1
  Local skin reactions around the treated knees, Subjects, number (%): 1 (1.4%)
  Requires hospitalization, Events: 0
  Requires hospitalization, Subjects, number (%): 0
  Results in death, number (%): 1 (1.4%)
  Serious treatment-emergent adverse events, Events: 1
  Serious treatment-emergent adverse events, Subjects, number (%): 1 (1.4)
  Severe treatment-emergent adverse events, Events: 1
  Severe treatment-emergent adverse events, Subjects, number (%): 1 (1.4%)
  To be discontinued from the study due to adverse events, Events: 1
  To be discontinued from the study due to adverse events, Subjects, number (%): 1 (1.4%)
  To be discontinued from the treatment temporarily due to adverse events, Events: 1
  To be discontinued from the treatment temporarily due to adverse events, Subjects, number (%): 1 (1.4%)
  Treatment-emergent adverse events, Events: 68
  Treatment-emergent adverse events, Subjects, number (%): 41 (57.7%)
8.75 mg/knee BID, n = 70
  Adverse events of special interest, Events: 12
  Adverse events of special interest, Subjects, number (%): 10 (14.3)
  Local skin reactions around the treated knees, Events: 1
  Local skin reactions around the treated knees, Subjects, number (%): 1 (1.4%)
  Requires hospitalization, Events: 1
  Requires hospitalization, Subjects, number (%): 1 (1.4%)
  Results in death, number (%): 0
  Serious treatment-emergent adverse events, Events: 1
  Serious treatment-emergent adverse events, Subjects, number (%): 1 (1.4)
  Severe treatment-emergent adverse events, Events: 1
  Severe treatment-emergent adverse events, Subjects, number (%): 1 (1.4%)
  To be discontinued from the study due to adverse events, Events: 0
  To be discontinued from the study due to adverse events, Subjects, number (%): 0
  To be discontinued from the treatment temporarily due to adverse events, Events: 1
  To be discontinued from the treatment temporarily due to adverse events, Subjects, number (%): 1 (1.4%)
  Treatment-emergent adverse events, Events: 71
  Treatment-emergent adverse events, Subjects, number (%): 39 (55.7%)
17.5 mg/knee BID, n = 70
  Adverse events of special interest, Events: 14
  Adverse events of special interest, Subjects, number (%): 11 (15.7)
  Local skin reactions around the treated knees, Events: 5
  Local skin reactions around the treated knees, Subjects, number (%): 4 (5.7%)
  Requires hospitalization, Events: 0
  Requires hospitalization, Subjects, number (%): 0
  Results in death, number (%): 0
  Serious treatment-emergent adverse events, Events: 0
  Serious treatment-emergent adverse events, Subjects, number (%): 0
  Severe treatment-emergent adverse events, Events: 0
  Severe treatment-emergent adverse events, Subjects, number (%): 0
  To be discontinued from the study due to adverse events, Events: 1
  To be discontinued from the study due to adverse events, Subjects, number (%): 1 (1.4%)
  To be discontinued from the treatment temporarily due to adverse events, Events: 0
  To be discontinued from the treatment temporarily due to adverse events, Subjects, number (%): 0
  Treatment-emergent adverse events, Events: 52
  Treatment-emergent adverse events, Subjects, number (%): 30 (42.9%)
All three doses (4.375, 8.75, 17.5 mg/knee BID)
  safety and tolerability: appeared to be safe and were generally well tolerated
In vivo
  skin irritation incidences, total (all mild): 9
In vivo, po
  overall safety vs oral ibuprofen: safer than oral ibuprofen
[1]
  Gastroenteritis: number of adverse events: 1
  Gastroenteritis: percentage of subjects with adverse events: 1.4%

From US20240024273A1, “TOPICAL ADMINISTRATION OF 2-(DIETHYLAMINO)ETHYL 2-(4-ISOBUTYLPHENYL)PROPRIONATE FOR TREATMENT OF DISEASES” (TECHFIELDS PHARMA CO., LTD., priority 2020, published 2024)
